Patent US20100074083A1, “RESIN COMPOSITION AND MOLDED PRODUCT OBTAINED BY MOLDING THE RESIN COMPOSITION” (MITSUI CHEMICALS, INC., priority 2006, published 2010)

Legend:
Hexane solubility = type: physicochemical; conditions: stirred 1 hour, naked eye; for Hexane solubility 43 g: 43 g sample in 100 g n-hexane at 23° C.; for Hexane solubility 100 g: 100 g sample in 100 g n-hexane at 23° C.
Experimental: The samples in an amount as shown in Table 1 were added into 100 g of n-hexane at 23° C., and the mixture was stirred for 1 hour, and thereafter the state was evaluated with naked eyes on the basis of following criteria.
(Criteria for Evaluation)
S; Completely dissolved, C; Dissolved, but insoluble materials remained, and I.S.; Substantially not dissolved.

[1] = Weight reducing temperature at heating (heat resistance, TG-DTA); type: physicochemical; conditions: heated at 5° C./minutes under nitrogen
Experimental: The sample was heated at 5° C./minutes under nitrogen, and measured by means of TG8120 type TG-DTA device manufactured by Rigaku Corporation.

Compound | Hexane solubility 43 g (Hexane solubility) | Hexane solubility 100 g (Hexane solubility) | Heat resistance 1% by weight reducing temperature [1] [°C] | Heat resistance 5% by weight reducing temperature [1] [°C] | Hexane solubility 25 g (Hexane solubility; 25 g sample in 100 g n-hexane at 23° C.)
CCCCCCCCCCCCN(CCCNc1nc(N(CCCC)C2CC(C)(C)N(C)C(C)(C)C2)nc(N(CCCC)C2CC(C)(C)N(C)C(C)(C)C2)n1)CCCNc1nc(N(CCCC)C2CC(C)(C)N(C)C(C)(C)C2)nc(N(CCCC)C2CC(C)(C)N(C)C(C)(C)C2)n1 [Exemplary compound 4] | S | S | 292.7 | 357.2 | –
CCCCCCCCCCCCN(c1nc(N(CCCCCCCCCCCC)C2CC(C)(C)NC(C)(C)C2)nc(N(CCCCCCCCCCCC)C2CC(C)(C)NC(C)(C)C2)n1)C1CC(C)(C)NC(C)(C)C1 [Exemplary compound 3, N,N′,N″-trilauryl-N,N′,N″-tris(2,2,6,6-tetramethyl-4-piperidin-4-yl)-[1,3,5]-triazine-2,4,6-triamine] | S | S | 246.2 | 377.1 | –
CCCCCCCCN(c1nc(N(CCCCCCCC)C2CC(C)(C)N(C)C(C)(C)C2)nc(N(CCCCCCCC)C2CC(C)(C)N(C)C(C)(C)C2)n1)C1CC(C)(C)N(C)C(C)(C)C1 [Exemplary compound 7, N,N′,N″-trioctyl-N,N′,N″-tris-(1,2,2,6,6-pentamethyl-4-piperidinyl)-[1,3,5]-triazine-2,4,6-triamine] | S | S | 291.5 | 340.1 | –
CCCCCCCCCCCCNc1nc(N(CCCCCCCCCCCC)C2CC(C)(C)NC(C)(C)C2)nc(N(CCCCCCCCCCCC)C2CC(C)(C)NC(C)(C)C2)n1 [Exemplary compound 2, N,N′,N″-trilauryl-N,N′-bis-(2,2,6,6-tetramethylpiperidin-4-yl)-[1,3,5]-triazine-2,4,6-triamine] | S | S | 292.9 | 366.7 | –
CCCCCCCCCCCCNC1CC(C)(C)NC(C)(C)C1 [Exemplary compound 5, N-dodecyl-2,2,6,6-tetramethyl piperidine-4-amine] | S | S | 103.3 | 188.1 | –
CCCCCCCCCCCCNc1nc(N(CCCC)C2CC(C)(C)N(C)C(C)(C)C2)nc(N(CCCC)C2CC(C)(C)N(C)C(C)(C)C2)n1 [Exemplary compound 1, N,N′-dibutyl-,N″-lauryl-N,N′-bis-(1,2,2,6,6-pentamethyl-4-piperidin-4-yl)-[1,3,5]-triazine-2,4,6-triamine] | S | S | 271.6 | 333.4 | –
CCCCN(c1nc(N(CCCC)C2CC(C)(C)N(C)C(C)(C)C2)nc(N(CCCC)C2CC(C)(C)N(C)C(C)(C)C2)n1)C1CC(C)(C)N(C)C(C)(C)C1 [Exemplary compound 6, N,N′,N″-tributyl-N,N′,N″-tris-(1,2,2,6,6-pentamethyl-4-piperidinyl)-[1,3,5]-triazine-2,4,6-triamine] | S | S | 250.7 | 320.2 | –

More lines, now with the values ahead:

Hexane solubility 43 g (Hexane solubility) | Hexane solubility 100 g (Hexane solubility) | Heat resistance 1% by weight reducing temperature [1] [°C] | Heat resistance 5% by weight reducing temperature [1] [°C] | Hexane solubility 25 g (Hexane solubility; 25 g sample in 100 g n-hexane at 23° C.) | Compound
S | S | – | – | – | CCCCCCCCCCCCNc1nc(N(CCCCCCCC)C2CC(C)(C)N(C)C(C)(C)C2)nc(N(CCCCCCCC)C2CC(C)(C)N(C)C(C)(C)C2)n1 [Exemplary compound 13, N-dodecyl-N′,N″-bis(1,2,2,6,6-pentamethyl-4-piperidyl)-N′,N″-dioctyl-1,3,5-triazine-2,4,6-triamine]
S | S | – | – | – | CCCCCCCCCCCCN(c1nc(NCCCC)nc(N(CCCCCCCCCCCC)C2CC(C)(C)NC(C)(C)C2)n1)C1CC(C)(C)NC(C)(C)C1 [Exemplary compound 14, N-butyl-N′,N″-didodecyl-N′,N″-bis(2,2,6,6-tetramethyl-4-piperidyl)-1,3,5-triazine-2,4,6-triamine]
– | – | 207.4 | 248.4 | I.S. | CC1(C)CC(OC(=O)CCCCCCCCC(=O)OC2CC(C)(C)NC(C)(C)C2)CC(C)(C)N1 [TINUVIN 770]
S | – | – | – | – | CCCCCCCCCCCCNc1nc(N(CCCC)C2CC(C)(C)NC(C)(C)C2)nc(N(CCCC)C2CC(C)(C)NC(C)(C)C2)n1 [Exemplary compound 9, N,N′-dibutyl-N″-dodecyl-N,N′-bis(2,2,6,6-tetramethyl-4-piperidyl)-1,3,5-triazine-2,4,6-triamine]
S | S | – | – | – | CCCCCCCCN(CCCCCCCC)c1nc(N(CCCC)C2CC(C)(C)NC(C)(C)C2)nc(N(CCCC)C2CC(C)(C)NC(C)(C)C2)n1 [Exemplary compound 12, N,N′-dibutyl-N,N′-bis(2,2,6,6-tetramethyl-4-piperidyl)-N″, N″-dioctyl-1,3,5-triazine-2,4,6-triamine]
S | S | 330.1 | 378.2 | – | CCCCCCCCCCCCN(c1nc(N(CCCCCCCCCCCC)C2CC(C)(C)N(C)C(C)(C)C2)nc(N(CCCCCCCCCCCC)C2CC(C)(C)N(C)C(C)(C)C2)n1)C1CC(C)(C)N(C)C(C)(C)C1 [Exemplary compound 8, N,N′,N″-tridodecyl-N,N′,N″-tris-(1,2,2,6,6-pentamethyl-4-piperidinyl)-[1,3,5]-triazine-2,4,6-triamine]
S | – | – | – | – | CCCCNc1nc(N(CCCC)C2CC(C)(C)NC(C)(C)C2)nc(N(CCCC)C2CC(C)(C)NC(C)(C)C2)n1 [Exemplary compound 10, N,N′,N″-tributyl-N,N′-bis(2,2,6,6-tetramethyl-4-piperidyl)-1,3,5-triazine-2,4,6-triamine]
S | S | – | – | – | CCCCN(CCCC)c1nc(N(CCCC)C2CC(C)(C)NC(C)(C)C2)nc(N(CCCC)C2CC(C)(C)NC(C)(C)C2)n1 [Exemplary compound 11, N,N′,N″,N″-tetrabutyl-N,N′-bis(2,2,6,6-tetramethyl-4-piperidyl)-1,3,5-triazine-2,4,6-triamine]
